Measurements taken from patent US7402698B2, “Secondary amino-and cycloamino-cycloalkanol derivatives and methods of their use” (Wyeth, priority 2003, dated 2008).
Counter-ions that a name gives are not always drawn.

Key:
human hNET [1] = molecular target: T1, human hNET (Homo sapiens, UniProt P23975); test: Norepinephrine (NE) uptake assay in MDCK-Net6 cells; assay type: cell-based; details: 1 μM test compound, [3H]NE uptake
T1 construct: expressed in transfected cells; host or cells: MDCK-Net6 (MDCK cells stably transfected with hNET)
Method: MDCK-Net6 cells, stably transfected with human hNET (Pacholczyk, T., R. D. Blakely, and S. G. Amara, Nature, 1991, 350(6316): p. 350-4) were cultured in growth medium containing high glucose DMEM (Gibco, Cat. No. 11995), 10% FBS (dialyzed, heat-inactivated, US Bio-Technologies, Lot FBD1129HI) and 500 μg/ml G418 (Gibco, Cat. No. 10131). Cells were plated at 300,000/T75 flask and cells were split twice weekly. The JAR cell line (human placental choriocarcinoma) was purchased from ATCC (Cat. No. HTB-144). The cells were cultured in growth medium containing RPMI 1640 (Gibco, Cat. No. 72400), 10% FBS (Irvine, Cat. No. 3000), 1% sodium pyruvate (Gibco, Cat. No. 1136) and 0.25% glucose. Cells were plated at 250,000 cells/T75 flask and split twice weekly. For all assays, cells were plated in Wallac 96-well sterile plates (PerkinEimer, Cat. No. 3983498).
On day 1, cells were plated at 3,000 cells/well in growth medium and maintained in a cell incubator (37° C., 5% CO2). On day 2, growth medium was replaced with 200 μl of assay buffer (25 mM HEPES; 120 mM NaCl; 5 mM KCl; 2.5 mM CaCl2; 1.2 mM MgSO4; 2 mg/ml glucose (pH 7.4, 37° C.)) containing 0.2 mg/ml ascorbic acid and 10 μM pargyline. Plates containing cells with 200 μl of assay buffer were equilibrated for 10 minutes at 37° C. prior to addition of compounds. A stock solution of desipramine was prepared in DMSO (10 mM) and delivered to triplicate wells containing cells for a final test concentration of 1 μM. Data from these wells were used to define non-specific NE uptake (minimum NE uptake). Test compounds were prepared in DMSO (10 mM) and diluted in assay buffer according to test range (1 to 10,000 nM). Twenty-five microliters of assay buffer (maximum NE uptake) or test compound were added directly to triplicate wells containing cells in 200 μl of assay buffer. The cells in assay buffer with test compounds were incubated for 20 minutes at 37° C. To initiate the NE uptake, [^3H]NE diluted in assay buffer (120 nM final assay concentration) was delivered in 25 μl aliquots to each well and the plates were incubated for 5 minutes (37° C.). The reaction was terminated by decanting the supernatant from the plate. The plates containing cells were washed twice with 200 μl assay buffer (37° C.) to remove free radioligand. The plates were then inverted, left to dry for 2 minutes, then reinverted and air-dried for an additional 10 minutes. The cells were lysed in 25 μl of 0.25 N NaOH solution (4° C.), placed on a shake table and vigorously shaken for 5 minutes. After cell lysis, 75 μl of scintillation cocktail was added to each well and the plates were sealed with film tape. The plates were returned to the shake table and vigorously shaken for a minimum of 10 minutes to ensure adequate partitioning of organic and aqueous solutions. The plates were counted in a Wallac Microbeta counter (PerkinEimer) to collect the raw cpm data.
For each experiment, a data stream of cpm values collected from the Wallac Microbeta counter was downloaded to a Microsoft Excel statistical application program. Calculations of EC50 values were made using the transformed-both-sides logistic dose responses program written by Wyeth Biometrics Department. The statistical program uses mean cpm values from wells representing maximum binding or uptake (assay buffer) and mean cpm values from wells representing minimum binding or uptake ((1 μM desipramine (hNET) or 1 μM paroxetine (hSERT)). Estimation of the EC50 value was completed on a log scale and the line was fit between the maximum and minimum binding or uptake values. All graphic data representation was generated by normalizing each data point to a mean percent based on the maximum and minimum binding or uptake values. The EC50 values reported from multiple experiments were calculated by pooling the raw data from each experiment and analyzing the pooled data as one experiment.

human hNET [2] = molecular target: T1, human hNET; test: as above; assay type: cell-based; details: 30 μM test compound (stated in cell), [3H]NE uptake

T1 sequence (P23975 whole entry): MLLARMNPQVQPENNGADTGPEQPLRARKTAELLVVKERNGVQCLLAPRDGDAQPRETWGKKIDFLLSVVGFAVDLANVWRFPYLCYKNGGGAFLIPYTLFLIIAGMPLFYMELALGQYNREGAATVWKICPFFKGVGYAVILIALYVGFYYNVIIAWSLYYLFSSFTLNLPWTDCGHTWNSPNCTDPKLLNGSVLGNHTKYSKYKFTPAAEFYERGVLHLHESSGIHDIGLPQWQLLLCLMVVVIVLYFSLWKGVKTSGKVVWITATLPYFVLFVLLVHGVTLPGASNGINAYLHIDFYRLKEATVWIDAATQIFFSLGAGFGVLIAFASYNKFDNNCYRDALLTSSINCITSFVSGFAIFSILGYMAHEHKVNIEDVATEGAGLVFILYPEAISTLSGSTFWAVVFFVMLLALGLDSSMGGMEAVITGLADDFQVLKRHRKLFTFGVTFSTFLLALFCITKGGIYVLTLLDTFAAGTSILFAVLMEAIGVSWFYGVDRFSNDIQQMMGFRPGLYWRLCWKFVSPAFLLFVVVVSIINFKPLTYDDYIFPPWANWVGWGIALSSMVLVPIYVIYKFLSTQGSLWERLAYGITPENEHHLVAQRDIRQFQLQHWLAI

inhibition at 1 µM (human hNET [1]) [%]	inhibition at 30 µM (human hNET [2]) [%]	Structure (SMILES)
92	–	OC1(C(CNCc2ccccc2)c2ccc(Cl)c(Cl)c2)CCC1 (centres unmarked) [Example 10, 1-[2-(benzylamino)-1-(3,4-dichlorophenyl)ethyl]cyclobutanol hydrochloride]
90	–	OC1(C(CNCc2ccccc2)c2ccc3ccccc3c2)CCC1 (centres unmarked) [Example 12, 1-[2-(benzylamino)-1-(2-naphthyl)ethyl]cyclobutanol hydrochloride]
89	–	CN1CCC(O)(C(CNCc2ccccc2)c2ccc(Cl)c(Cl)c2)CC1 (centres unmarked) [Example 15, 4-[2-(benzylamino)-1-(3,4-dichlorophenyl)ethyl]-1-methylpiperidin-4-ol dihydrochloride]
56	–	OC1(C(CNCc2ccccc2)c2ccc(Cl)c(Cl)c2)CCCCC1 (centres unmarked) [Example 38, 1-[2-(benzylamino)-1-(3,4-dichlorophenyl)ethyl]cyclohexanol hydrochloride]
55	–	OC1(C(CNCc2ccccc2)c2cccc(Br)c2)CCC1 (centres unmarked) [Example 40, 1-[2-(benzylamino)-1-(3-bromophenyl)ethyl]cyclobutanol hydrochloride]
51	–	OC1(C(CNCc2ccccc2)c2cccc(Cl)c2)CCCCC1 (centres unmarked) [Example 41, 1-[2-(benzylamino)-1-(3-chlorophenyl)ethyl]cyclohexanol hydrochloride]
44	–	CN1CCC(O)(C(CNCc2ccccc2)c2cccc(Br)c2)CC1 (centres unmarked) [Example 44, 4-[2-(benzylamino)-1-(3-bromophenyl)ethyl]-1-methylpiperidin-4-ol dihydrochloride]
33	–	OC1(C(CNCc2cccc(Cl)c2)c2cccc(Br)c2)CCCCC1 (centres unmarked) [Example 60, 1-{1-(3-bromophenyl)-2-[(3-chlorobenzyl)amino]ethyl}cyclohexanol hydrochloride]
31	–	OC1(C(CNCc2ccccc2)c2cccc(Br)c2)CCCCC1 (centres unmarked) [Example 61, 1-[2-(benzylamino)-1-(3-bromophenyl)ethyl]cyclohexanol hydrochloride]
30	–	OC1(C(CNCc2ccccc2)c2ccc3ccccc3c2)CCCCC1 (centres unmarked) [Example 62, 1-[2-(benzylamino)-1-(2-naphthyl)ethyl]cyclohexanol hydrochloride]
15	–	OC1(C(CNCc2ccc(C(F)(F)F)cc2)c2cccc(Br)c2)CCCCC1 (centres unmarked) [Example 90, 1-(1-(3-bromophenyl)-2-{[4-(trifluoromethyl)benzyl]amino}ethyl)cyclohexanol hydrochloride]
–	69	OC1(C(CNCc2ccc(F)cc2)c2cccc(Br)c2)CCCCC1 (centres unmarked) [Example 98, 1-{1-(3-bromophenyl)-2-[(4-fluorobenzyl)amino]ethyl}cyclohexanol hydrochloride]

The next lines start with the molecule.

Structure (SMILES)	inhibition at 1 µM (human hNET [1]) [%]	inhibition at 30 µM (human hNET [2]) [%]
OC1(C(CN2CCNCC2)c2cccc(Cl)c2)CCCCC1 (centres unmarked) [Example 1, 1-[1-(3-chlorophenyl)-2-piperazin-1-ylethyl]cyclohexanol dihydrochloride]	93	–
OC1(C(CNCc2cccc(Cl)c2)c2ccc3ccccc3c2)CCCCC1 (centres unmarked) [Example 33, 1-[2-[(3-chlorobenzyl)amino]-1-(2-naphthyl)ethyl]cyclohexanol hydrochloride]	69	–
OC1(C(CN2CCCC2)c2cccc(Cl)c2)CCCCC1 (centres unmarked) [Example 34, 1-[1-(3-chlorophenyl)-2-pyrrolidin-1-ylethyl]cyclohexanol hydrochloride]	65	–
OC1(C(CNC2CCCCC2)c2ccc(Cl)c(Cl)c2)CCCCC1 (centres unmarked) [Example 42, 1-[2-(cyclohexylamino)-1-(3,4-dichlorophenyl)ethyl]cyclohexanol hydrochloride]	48	–
OC1(C(CNCc2ccc(F)cc2)c2cccc(C(F)(F)F)c2)CCCCC1 (centres unmarked) [Example 47, 1-{2-[(4-fluorobenzyl)amino]-1-[3-(trifluoromethyl)phenyl]ethyl}cyclohexanol hydrochloride]	40	–
OC1(C(CNC2CCCCC2)c2cccc(Br)c2)CCCCC1 (centres unmarked) [Example 48, 1-[1-(3-bromophenyl)-2-(cyclohexylamino)ethyl]cyclohexanol hydrochloride]	40	–
OC1(C(CNC2CCCc3ccccc32)c2cccc(Br)c2)CCCCC1 (centres unmarked) [Example 55, 1-[1-(3-bromophenyl)-2-(1,2,3,4-tetrahydronaphthalen-1-ylamino)ethyl]cyclohexanol hydrochloride]	38	–
OC1(C(CN2CCOCC2)c2cccc(Cl)c2)CCCCC1 (centres unmarked) [Example 57, 1-[1-(3-chlorophenyl)-2-morpholin-4-ylethyl]cyclohexanol hydrochloride]	35	–
OC1(C(CNC2CCCCC2)c2cccc(Cl)c2)CCCCC1 (centres unmarked) [Example 67, 1-[1-(3-chlorophenyl)-2-(cyclohexylamino)ethyl]cyclohexanol hydrochloride]	26	–
OC1(C(CNCc2ccc(C(F)(F)F)cc2)c2ccc(Cl)c(Cl)c2)CCCCC1 (centres unmarked) [Example 75, 1-(1-(3,4-dichlorophenyl)-2-{[4-(trifluoromethyl)benzyl]amino}ethyl)cyclohexanol hydrochloride]	22	–
OC1(C(CNCc2ccc(F)cc2)c2ccc(Cl)c(Cl)c2)CCCCC1 (centres unmarked) [Example 80, 1-{1-(3,4-dichlorophenyl)-2-[(4-fluorobenzyl)amino]ethyl}cyclohexanol hydrochloride]	20	–
OC1(C(CN2CCOCC2)c2ccc(Cl)c(Cl)c2)CCC1 (centres unmarked) [Example 83, 1-[1-(3,4-dichlorophenyl)-2-morpholin-4-ylethyl]cyclobutanol hydrochloride]	19	–
OC1(C(CN2CCCCC2)c2cccc(Cl)c2)CCCCC1 (centres unmarked) [Example 85, 1-[1-(3-chlorophenyl)-2-piperidin-1-ylethyl]cyclohexanol hydrochloride]	17	–
OC1(C(CN2CCOCC2)c2cccc(Br)c2)CCC1 (centres unmarked) [Example 95, 1-[1-(3-bromophenyl)-2-morpholin-4-ylethyl]cyclobutanol hydrochloride]	–	67
OC1(C(CN2CCOCC2)c2cccc(Br)c2)CCCCC1 (centres unmarked) [Example 99, 1-[1-(3-bromophenyl)-2-morpholin-4-ylethyl]cyclohexanol hydrochloride]	–	55
OC1(C(CNCc2ccc(C(F)(F)F)cc2)c2cccc(Cl)c2)CCCCC1 (centres unmarked) [Example 105, 1-(1-(3-chlorophenyl)-2-{[4-(trifluoromethyl)benzyl]amino}ethyl)cyclohexanol hydrochloride]	–	99
OC1(C(CN2CCOCC2)c2ccc(Cl)c(Cl)c2)CCCCC1 (centres unmarked) [Example 112, 1-[1-(3,4-dichlorophenyl)-2-morpholin-4-ylethyl]cyclohexanol hydrochloride]	–	80
OC1(C(CNCc2ccc(F)cc2)c2ccc3ccccc3c2)CCCCC1 (centres unmarked) [Example 113, 1-[2-[(4-fluorobenzyl)amino]-1-(2-naphthyl)ethyl]cyclohexanol hydrochloride]	–	55
CN1CCC(O)(C(CN2CCOCC2)c2ccc(Cl)c(Cl)c2)CC1 (centres unmarked) [Example 114, 4-[1-(3,4-dichlorophenyl)-2-morpholin-4-ylethyl]-1-methylpiperidin-4-ol dihydrochloride]	–	52
CN1CCC(O)(C(CN2CCOCC2)c2cccc(Br)c2)CC1 (centres unmarked) [Example 116, 4-[1-(3-bromophenyl)-2-morpholin-4-ylethyl]-1-methylpiperidin-4-ol dihydrochloride]	–	6
